Source: patent publication US10870627B2, “Salt of quinazoline derivative, preparation method therefor and application thereof” (SHANGHAI PHARMACEUTICALS HOLDING CO., LTD., priority 2016, dated 2020)

Assays:
[1] = Solubility determined by visual inspection; format: physicochemical
Protocol: The solubility was determined as follows: a certain amount of the sample was weighed and the solvent was added thereto in portions with stirring or ultrasonication to accelerate dissolution; the amount of the consumed solvent was recorded once the sample was dissolved. […] A certain volume of the solution was taken, followed by filtration, concentration, dissolved with a certain volume of other suitable solvents and subjected to HPLC measurement to obtain accurate data of the solubility.

[2] = Dynamic vapor sorption (DVS), isothermal absorption analysis; format: physicochemical
Protocol: In the present invention, according to the common knowledge in the art, the amount of water absorption obtained from the dynamic vapor sorption (DVS) pattern is expressed in percentage by weight.
The isothermal absorption analysis (DVS) data was collected from TA Instruments Q5000 TGA. The software for instrument control was Thermal Advantage and software for analysis was Universal Analysis. 1-10 mg of the sample was generally placed in a platinum crucible, and the weight change of the sample during the relative humidity changing from 20% to 80% was recorded by the TA software. Depending on the specifics of the sample, different steps of sample adsorption and desorption were also involved.

[3] = Solid-state stability test; format: physicochemical
Protocol: An appropriate amount of the drugs were placed in the surface dish, spread to a thickness of 3-5 mm, and exposed in high temperature, high temperature and high humidity, illumination and oxidation conditions for 10 days respectively, and the solid-state characterization was performed. The purity and the number of impurities 0.05%) of the samples for testing were determined by HPLC, and compared with the samples on day 0. The exposure conditions are:
High temperature (an oven with T=60° C.);
Illumination (25° C., a 4500±500 lx light incubator);
Oxidation (25° C., a closed container containing urea hydrogen peroxide).

[4] = Comparison of absorption in rats after intragastric administration of free base and salt (plasma pharmacokinetics); format: in vivo, SD rats; details: for AUC (0-t) / MRT (0-T) / Tmax / t1/2 / Cmax: SD rats, 20 μmol/kg, intragastric administration, plasma
Protocol: The blood sample was centrifuged at 8000 RPM for 5 minutes, followed by the isolation of the upper plasma. […] 200 μL of the supernatant was taken and centrifuged again for 10 minutes. 50 μL of the supernatant was injected in a 96-well plate. The plasma drug concentration was determined by LC/MS/MS, and the corresponding pharmacokinetic parameters were calculated.

[5] = Solution stability test; format: physicochemical
Protocol: About 15 mg of the sample was weighed accurately, dissolved with 25 mL of the test solvent (10% aqueous acetone solution, pH=4.0 B-R buffer solution, SGF, SIF) via ultrasound for 20 minutes. The solution was divided into four portions and placed in the clear glass vials, followed by sealing. The samples were exposed in different environments and sampled on day 0 and day 5. The purity of each sample was determined by HPLC, and the number of impurities greater than 0.05% was calculated and compared with the samples on day 0. The exposure environments are:
Room temperature and light-proof test, 25° C.; […]
Illumination experiment (4500±500 lx), 25° C.;
Oxidation experiment (3% v/v hydrogen peroxide), 25° C.

[6] = Water solubility at 20° C. determined by HPLC; format: physicochemical
[7] = 10 d, High temperature (oven, T=60° C.)
[8] = 10 d, High temperature and high humidity (40° C., 75% relative humidity)
[9] = 10 d, Illumination (25° C., 4500±500 lx)
[10] = 10 d, Oxidation (25° C., closed container with urea hydrogen peroxide)
[11] = 10% aqueous acetone solution, 0 d, impurities greater than 0.05%
[12] = 10% aqueous acetone solution, 5 d, High temperature
[13] = 10% aqueous acetone solution, 5 d, High temperature and high humidity
[14] = 10% aqueous acetone solution, 5 d, Illumination (4500±500 lx, 25° C.)
[15] = 10% aqueous acetone solution, 5 d, Oxidation (3% v/v hydrogen peroxide, 25° C.)
[16] = B-R Buffer solution (pH=4.0), 0 d, impurities greater than 0.05%
[17] = B-R Buffer solution (pH=4.0), 5 d, High temperature
[18] = B-R Buffer solution (pH=4.0), 5 d, High temperature and high humidity
[19] = B-R Buffer solution (pH=4.0), 5 d, Illumination (4500±500 lx, 25° C.)
[20] = B-R Buffer solution (pH=4.0), 5 d, Oxidation (3% v/v hydrogen peroxide, 25° C.)
[21] = SGF, 0 d, impurities greater than 0.05%
[22] = SGF, 5 d, High temperature and high humidity
[23] = SGF, 5 d, Illumination (4500±500 lx, 25° C.)
[24] = SGF, 5 d, Oxidation (3% v/v hydrogen peroxide, 25° C.)
[25] = SIF, 0 d, impurities greater than 0.05%
[26] = SIF, 5 d, High temperature and high humidity
[27] = SIF, 5 d, Illumination (4500±500 lx, 25° C.)
[28] = SIF, 5 d, Oxidation (3% v/v hydrogen peroxide, 25° C.)

SMILES: C=C(F)C(=O)Nc1cc2c(Nc3ccc(F)c(Cl)c3)ncnc2cc1OCCCN1CCOCC1.O=S(=O)(O)O.O=S(=O)(O)O [disulfate of the quinazoline derivative]
- visual solubility in water ([1]; 20° C.): 910 to 1000 µg/mL

SMILES: C=C(F)C(=O)Nc1cc2c(Nc3ccc(F)c(Cl)c3)ncnc2cc1OCCCN1CCOCC1.O=S(=O)(O)CCS(=O)(=O)O
- hygroscopicity, in words [2]: not easy to absorb moisture
- Number of impurities ([3]; 0 d): 2
- Purity ([3]; 0 d): 99.0%
- Number of impurities [3, 7]: 2
- Purity [3, 7]: 99.0%
- Number of impurities [3, 8]: 2
- Purity [3, 8]: 99.0%
- Number of impurities [3, 9]: 2
- Purity [3, 9]: 99.0%
- Number of impurities [3, 10]: 2
- Purity [3, 10]: 99.0%
- AUC (0-t) [4]: 195.56 ± 84.51 µM·min
- MRT (0-T) [4]: 5.3317 ± 0.9937 h
- Tmax [4]: 1.333 ± 0.2887 h
- t1/2 [4]: 3.744 ± 0.9165 h
- Cmax ([4]; listed as monoethanedisulfonate): 390 ± 160 nM
- AUC (0-t) and Cmax, comparison in words ([4]; rats, oral, same dose, free base and 6 salts): relatively low
- visual solubility in water ([1]; room temperature): 1000 to 2000 µg/mL
- Number of impurities [5, 11]: 1
- Number of impurities [5, 12]: 1
- Purity [5, 12]: 99.0%
- Number of impurities [5, 13]: 3
- Purity [5, 13]: 98.1%
- Number of impurities [5, 14]: 1
- Number of impurities [5, 15]: 7
- Purity [5, 15]: 70.8%
- Purity ([5]; B-R Buffer solution (pH=4.0), 0 d): 99.0%
- Number of impurities [5, 16]: 1
- Number of impurities [5, 17]: 1
- Purity [5, 17]: 99.0%
- Number of impurities [5, 18]: 3
- Purity [5, 18]: 97.7%
- Number of impurities [5, 19]: 1
- Purity [5, 19]: 99.0%
- Number of impurities [5, 20]: 15
- Purity [5, 20]: 44.0%
- Purity ([5]; SGF, 0 d): 99.0%
- Number of impurities [5, 21]: 1
- Number of impurities ([5]; SGF, 5 d, High temperature): 2
- Number of impurities [5, 22]: 2
- Purity [5, 22]: 94.5%
- Number of impurities [5, 23]: 2
- Number of impurities [5, 24]: 3
- Purity ([5]; SIF, 0 d): 74.8%
- Number of impurities [5, 25]: 2
- Number of impurities ([5]; SIF, 5 d, High temperature): 1
- Purity ([5]; SIF, 5 d, High temperature): 50.0%
- Number of impurities [5, 26]: 6
- Purity [5, 26]: 36.5%
- Number of impurities [5, 27]: 13
- Purity [5, 27]: 25.2%
- Number of impurities [5, 28]: 7
- Purity [5, 28]: 30.8%

SMILES: C=C(F)C(=O)Nc1cc2c(Nc3ccc(F)c(Cl)c3)ncnc2cc1OCCCN1CCOCC1.O=S(=O)(O)c1ccccc1
- hygroscopicity, in words [2]: not easy to absorb moisture
- water solubility at 20° C. determined by HPLC [6]: 60.4 µg/mL
- Number of impurities ([3]; 0 d): 2
- Number of impurities [3, 7]: 2
- Number of impurities [3, 8]: 2
- Number of impurities [3, 9]: 2
- Number of impurities [3, 10]: 2
- AUC (0-t) [4]: 972.26 ± 291.88 µM·min
- MRT (0-T) [4]: 5.9522 ± 0.2533 h
- Tmax [4]: 1.333 ± 0.5773 h
- t1/2 [4]: 5.0897 ± 2.1273 h
- Cmax ([4]; listed as monobenzenesulfonate): 2300 ± 470 nM
- Purity ([5]; 10% aqueous acetone solution, 0 d): 98.2%
- Number of impurities [5, 11]: 1
- Number of impurities [5, 12]: 1
- Purity [5, 12]: 97.9%
- Number of impurities [5, 13]: 3
- Number of impurities [5, 14]: 1
- Purity [5, 14]: 97.6%
- Number of impurities [5, 15]: 7
- Purity [5, 15]: 60.8%
- Number of impurities [5, 16]: 2
- Number of impurities [5, 17]: 3
- Purity [5, 17]: 97.2%
- Number of impurities [5, 18]: 3
- Purity [5, 18]: 97.2%
- Number of impurities [5, 19]: 1
- Number of impurities [5, 20]: 12
- Purity [5, 20]: 38.1%
- Number of impurities [5, 21]: 1
- Number of impurities ([5]; SGF, 5 d, High temperature): 2
- Number of impurities [5, 22]: 2
- Purity [5, 22]: 94.4%
- Number of impurities [5, 23]: 1
- Number of impurities [5, 24]: 3
- Purity [5, 24]: 81.7%
- Purity ([5]; SIF, 0 d): 80.2%
- Number of impurities [5, 25]: 2
- Number of impurities ([5]; SIF, 5 d, High temperature): 1
- Purity ([5]; SIF, 5 d, High temperature): 58.7%
- Number of impurities [5, 26]: 8
- Purity [5, 26]: 42.0%
- Number of impurities [5, 27]: 9
- Purity [5, 27]: 10.0%
- Purity [5, 28]: Complete

SMILES: C=C(F)C(=O)Nc1cc2c(Nc3ccc(F)c(Cl)c3)ncnc2cc1OCCCN1CCOCC1.O=S(=O)(O)O
- hygroscopicity, in words [2]: fairly hygroscopic
- AUC (0-t) [4]: 591.00 ± 29.76 µM·min
- MRT (0-T) [4]: 5.7252 ± 0.7072 h
- Tmax [4]: 1.167 ± 0.2887 h
- t1/2 [4]: 3.8468 ± 2.704 h
- Cmax ([4]; listed as monosulfate): 1660 ± 270 nM
- visual solubility in water ([1]; 20° C.): 1000 to 2000 µg/mL
